Data reported in patent publication US20240270731A1, “[…]” (ALEBUND PHARMACEUTICALS (HONG KONG) LIMITED, priority 2021, published 2024).

Assays:
[1] = tested on: rat model of hyperlipidemia induced by high cholesterol diet; test: Rat model of hyperlipidemia induced by high cholesterol diet (serum TG, NEFA); format: in vivo, Sprague-Dawley rats; details: for Serum TG / Serum NEFA: mean ± SD, n=6
From the text: On the day before the start of the administration (Day 0), the animals were divided into 7 groups based on body weights and serum indicators and were continually fed with the high-cholesterol diet. The treatment groups were orally dosed with either compound or vehicle while continuing the high-cholesterol diet for a total of 1 week. The animals were weighed daily before the treatment, and the compounds were given at 9:00-9:30 in the morning based on the body weight of the day.

[2] = 7-day repeated oral gavage, body weights of ICR mice; format: in vivo; details: for Weight Gain compared with Day 0: n=10
From the text: After 3 days of acclimatization, ICR mice were grouped according to their body weights. The day of grouping is designated as Day 0. […] The animals were weighed and recorded daily.

[3] = tested on: db/db type 2 diabetes model; test: Pharmacodynamics study on the db/db type 2 diabetes model; details: for Statistical difference (p) of the blood glucose level between OGTT treatment group and vehicle group: 0.2 mpk; for Statistical difference (p) of the blood glucose level between treatment group and vehicle group: random blood glucose
From the text: 45 db/db mice were evenly divided into 5 groups before the initiation of treatment based on the body weights, serum triglyceride (TG) levels, and random blood glucose levels.
All animals were weighed daily before each dosing and treated daily for 14 consecutive days.
All the data was imported into an Excel file and presented as Mean±SEM. Graphpad Prism 7.0 software was used for data statistical analysis by One-way or Two-way ANOVA, with P<0.05 as the criterion of significant differences.

[4] = tested on: rat model of unilateral ureteral obstruction; test: Renal injury in rat model of unilateral ureteral obstruction; details: 0.2 mg/kg oral daily, 14 treatment days
Method: Housing temperature was maintained at 20-26° C. and humidity at 40%-60%. Rats were fed with a standard chow and allowed to access food and water ad libitum.
The formulation was prepared twice a week.
Vehicle or compounds were administrated by orally gavage daily. Unilateral ureteral obstruction was performed on the second day of compound treatment. Animals in model group, reference group and compound group underwent urethral ligation under isoflurane anesthesia one hour after receiving compound administration. A flank incision was cut to expose the left ureter, and a 4-0 surgical suture was used to perform two-point ligation to achieve urethral obstruction. Ureter was cut between the two ligation points. Animals in the control group were subjected to the same surgical treatment except the ligation and cut.
Rats were sacrificed after 14 days' compound treatment. The obstructed kidney was weighed and collected for histology. The tissue samples were fixed with formalin, and then paraffin embedded. The embedded tissue was sectioned and stained with hematoxylin & eosin and Masson trichrome to assess kidney structure and fibrosis.
The multiple comparison was analyzed with the Kruskal-Wallis non-parameter test. The Dunn's test was used to compare the difference to the model group.

[5] = Day 0 (day before treatment), group later dosed 0.2 mg/kg oral QD x 7 days
[6] = Day 0 (day before treatment), group later dosed 0.6 mg/kg oral QD x 7 days
[7] = Day 8, 0.2 mg/kg oral QD x 7 days
[8] = Day 8, 0.6 mg/kg oral QD x 7 days
[9] = 1 mg/kg (Aleglitazar: Day 6; Compound 2: Day 4 and 5; Compounds 4 and 10: Day 4 to Day 7)

Q: Which results are given for [2H]c1c([2H])c([2H])c(-c2nc(CCOc3ccc(C[C@H](OC)C(=O)O)c4sccc34)c(C)o2)c([2H])c1[2H] (single isomer, unassigned) [Compound 4]?
A: Serum TG [1, 5]: 4.22 ± 1.71 mmol/L; Serum TG [1, 6]: 4.00 ± 1.71 mmol/L; Serum NEFA [1, 7]: 490.33 ± 113.61 µmol/L; Serum TG [1, 7]: 2.46 ± 1.18 mmol/L; Serum NEFA [1, 8]: 347.83 ± 113.61 µmol/L; Serum TG [1, 8]: 1.93 ± 0.58 mmol/L; Daily average weight gain compared with the vehicle group [2, 9]: significantly higher; Weight Gain compared with Day 0 ([2]; Day 1, 1 mg/kg oral QD): 0.35 ± 0.24 g; Weight Gain compared with Day 0 ([2]; Day 2, 1 mg/kg oral QD): 1.45 ± 0.34 g; Weight Gain compared with Day 0 ([2]; Day 3, 1 mg/kg oral QD): 2.75 ± 0.41 g; Weight Gain compared with Day 0 ([2]; Day 4, 1 mg/kg oral QD): 3.71 ± 0.46 g; Weight Gain compared with Day 0 ([2]; Day 5, 1 mg/kg oral QD): 4.26 ± 0.47 g; Weight Gain compared with Day 0 ([2]; Day 6, 1 mg/kg oral QD): 5.36 ± 0.54 g; Weight Gain compared with Day 0 ([2]; Day 7, 1 mg/kg oral QD): 5.91 ± 0.56 g

Q: For [2H]c1cccc([2H])c1-c1nc(CC([2H])([2H])Oc2ccc(C[C@H](OC)C(=O)O)c3sccc23)c(C)o1 (single isomer, unassigned) [Compound 10], which “Daily average weight gain compared with the vehicle group” value [2, 9] is on record?
A: The value was “significantly higher”.

Q: And the “Weight Gain compared with Day 0” value ([2]; Day 1, 1 mg/kg oral QD)?
A: The value was 0.34 ± 0.17 g.

Q: And the “Weight Gain compared with Day 0” value ([2]; Day 2, 1 mg/kg oral QD)?
A: Its value is 1.63 ± 0.41 g.

Q: And the “Weight Gain compared with Day 0” value ([2]; Day 3, 1 mg/kg oral QD)?
A: Its value is 2.96 ± 0.37 g.

Q: What about the “Weight Gain compared with Day 0” value ([2]; Day 4, 1 mg/kg oral QD) of the same compound?
A: The value was 3.85 ± 0.38 g.

Q: What about the “Weight Gain compared with Day 0” value ([2]; Day 5, 1 mg/kg oral QD) of the same compound?
A: Its value is 4.59 ± 0.39 g.

Q: And the “Weight Gain compared with Day 0” value ([2]; Day 6, 1 mg/kg oral QD)?
A: Its value is 5.75 ± 0.39 g.

Q: What about the “Weight Gain compared with Day 0” value ([2]; Day 7, 1 mg/kg oral QD) of the same compound?
A: Its value is 6.11 ± 0.53 g.

Q: What does the source list for CO[C@@H](Cc1ccc(OCCc2nc(-c3ccccc3)oc2C)c2ccsc12)C(=O)O [Aleglitazar, aleglitazar, reference compound]?
A: Serum TG [1, 5]: 4.24 ± 1.18 mmol/L; Serum TG [1, 6]: 4.09 ± 2.17 mmol/L; Serum NEFA [1, 7]: 706.00 ± 190.15 µmol/L; Serum TG [1, 7]: 2.86 ± 0.86 mmol/L; Serum NEFA [1, 8]: 327.83 ± 90.73 µmol/L; Serum TG [1, 8]: 1.47 ± 0.46 mmol/L; Serum TG and NEFA levels compared with the vehicle group ([1]; Day 8, both 0.2 mg/kg and 0.6 mg/kg): significantly reduce; Daily average weight gain compared with the vehicle group ([2]; 0.2 mg/kg (Aleglitazar: Day 4 and Day 5; Compound 2: throughout the study)): significantly higher; Daily average weight gain compared with the vehicle group [2, 9]: significantly higher; Weight Gain compared with Day 0 ([2]; Day 1, 0.2 mg/kg oral QD): 0.48 ± 0.27 g; Weight Gain compared with Day 0 ([2]; Day 2, 0.2 mg/kg oral QD): 1.66 ± 0.39 g; Weight Gain compared with Day 0 ([2]; Day 2, 1 mg/kg oral QD): 1.64 ± 0.26 g; Weight Gain compared with Day 0 ([2]; Day 3, 0.2 mg/kg oral QD): 2.62 ± 0.42 g; Weight Gain compared with Day 0 ([2]; Day 3, 1 mg/kg oral QD): 2.61 ± 0.51 g; Weight Gain compared with Day 0 ([2]; Day 4, 0.2 mg/kg oral QD): 3.50 ± 0.42 g; Weight Gain compared with Day 0 ([2]; Day 4, 1 mg/kg oral QD): 3.33 ± 0.54 g; Weight Gain compared with Day 0 ([2]; Day 5, 0.2 mg/kg oral QD): 3.92 ± 0.4 g; Weight Gain compared with Day 0 ([2]; Day 5, 1 mg/kg oral QD): 3.86 ± 0.49 g; Weight Gain compared with Day 0 ([2]; Day 6, 0.2 mg/kg oral QD): 4.81 ± 0.37 g; Weight Gain compared with Day 0 ([2]; Day 6, 1 mg/kg oral QD): 4.98 ± 0.52 g; Weight Gain compared with Day 0 ([2]; Day 7, 0.2 mg/kg oral QD): 5.39 ± 0.56 g; Weight Gain compared with Day 0 ([2]; Day 7, 1 mg/kg oral QD): 5.34 ± 0.50 g; Serum TG levels compared with the vehicle group ([3]; Day 6 and Day 12, Aleglitazar 0.2 mg/kg, Compound 2 at different dosages): significantly lower; Average daily body weights compared with the vehicle group ([3]; Day 10 to Day 15, Aleglitazar 0.2 mg/kg, Compound 2 0.05, 0.2, 1 mg/kg): significantly higher; Statistical difference (p) of the blood glucose level between OGTT treatment group and vehicle group ([3]; OGTT Day 14, 0 min): p < 0.001; Statistical difference (p) of the blood glucose level between OGTT treatment group and vehicle group ([3]; OGTT Day 14, 15 min): p < 0.01; Statistical difference (p) of the blood glucose level between OGTT treatment group and vehicle group ([3]; OGTT Day 14, 30 min): p > 0.05; Statistical difference (p) of the blood glucose level between OGTT treatment group and vehicle group ([3]; OGTT Day 14, 60 min): p < 0.01; Statistical difference (p) of the blood glucose level between OGTT treatment group and vehicle group ([3]; OGTT Day 14, 120 min): p < 0.01; Statistical difference (p) of the blood glucose level between treatment group and vehicle group ([3]; Day 0, 0.2 mpk): p > 0.05; Statistical difference (p) of the blood glucose level between treatment group and vehicle group ([3]; Day 7, 0.2 mpk): p < 0.05; Statistical difference (p) of the blood glucose level between treatment group and vehicle group ([3]; Day 14, 0.2 mpk): p < 0.01; Total score of renal focal lesions (infract, tubular dilation, tubular obstruction, fibrosis, necrosis) compared with model group [4]: did not achieve statistically significant improvement
